Experimental findings from patent US12295396B2, “Antagonists of T2R54 and compositions and uses thereof” (Firmenich Incorporated, priority 2018, dated 2025) are described below.

For the assay, the target named is T1, hT2R54 (Homo sapiens, UniProt P59534).
T1 construct: expressed in transfected cells; it overexpresses a promiscuous G protein
T1 sequence (P59534 1-338): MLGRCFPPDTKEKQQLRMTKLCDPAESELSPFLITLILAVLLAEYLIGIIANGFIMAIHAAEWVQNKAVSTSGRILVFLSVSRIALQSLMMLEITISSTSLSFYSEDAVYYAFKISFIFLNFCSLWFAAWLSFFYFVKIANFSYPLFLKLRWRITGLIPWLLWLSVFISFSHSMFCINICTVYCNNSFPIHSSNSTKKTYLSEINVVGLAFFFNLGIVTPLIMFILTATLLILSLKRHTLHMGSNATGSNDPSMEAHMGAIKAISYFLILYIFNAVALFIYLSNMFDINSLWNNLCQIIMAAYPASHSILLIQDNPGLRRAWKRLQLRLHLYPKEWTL
As to the kind of experiment: Cell-based assay for measuring hT2R54 inhibition (FLIPR calcium, Fluo4AM, acetaminophen as bitter agonist). As to conditions: for pIC50: read-out: hT2R54 IC50. On the procedure:
Cells stably expressing hT2R54 and a promiscuous G protein were seeded in 384 well plates 24 hours prior to the experiment. Cells were loaded with the calcium indicator Fluo4AM, washed and loaded in a FLIPR instrument with a compound plate containing increasing doses of acetaminophen in quadruplicates and prepared at 2× of final concentration. Baseline was recorded for 10 seconds, then 25 μl of […] was added onto 25 μl of cells and resulting changes in fluorescence were monitored over an additional 3 minutes. The host cell line overexpressing the G protein but not hT2R54 was treated as described above.
The ability of a test compound that blocks bitter taste elicited through hT2R54 was measured in this assay, as follows. Cells stably expressing hT2R54 and a promiscuous G protein were seeded in 384 well plates 24 hours prior to the experiment. Cells were loaded with the calcium indicator Fluo4AM, washed and loaded in a FLIPR instrument with a compound plate containing increasing doses of acetaminophen in buffer and increasing doses of acetaminophen with depicted fixed concentrations of Cmpd 109 (Table 4). Base line was recorded for 10 seconds, then 25 μl of compound and compound mixtures were added onto 25 μl of cells and resulting changes in fluorescence were monitored over an additional 3 minutes. The concentration of test compound that blocks half of the response when the bitter compound alone is present is presented as the EC50 or IC50 value.
In the examples above, the EC50 of compounds for blocking bitter taste elicited through T2R54 was measured in the same manner.

Where [1] appears, read: other T2R54 bitter blockers (table after b418).
[2] abbreviates: Table 2, cells stably expressing hT2R54 and a promiscuous G protein.

pIC50: −log10 of the molar value. Like-named read-outs stand apart in the source and are kept apart here.

`Cc1cc(N2CCC(C(N)=O)CC2)nc(-c2ccccc2)n1` [A, 1-(6-Methyl-2-phenylpyrimidin-4-yl)piperidine-4-carboxamide]: the pIC50 under setting [1] was 5.54.

With `COc1cc2ncnc(NCc3cccc4c3OCO4)c2cc1OC` [B], under setting [1], the negative-log IC50 (pIC50) is 5.74. Regarding `CC(=O)Nc1ccc(O)cc1` [acetaminophen, reference compound], where the note is “FIG. 1, cells expressing hT2R54, not control host cells”, the “response of hT2R54-expressing cells to bitter tastant” value is “measurable change in intracellular calcium”. In the case of `COc1ccc(F)cc1C(=O)N1CCN(CC(=O)Nc2cc3c(cc2C(C)=O)OCO3)CC1` [compound 2, N-(6-Acetylbenzo[d][1,3]dioxol-5-yl)-2-(4-(5-fluoro-2-methoxybenzoyl)piperazin-1-yl)acetamide], under setting [2], the pIC50 was 7.57. For the compound `CCCOC(=O)N1CCN(CC(=O)Nc2cc3c(cc2C(C)=O)OCO3)CC1` [compound 3, Propyl 4-(2-((6-Acetylbenzo[d][1,3]dioxol-5-yl)amino)-2-oxoethyl)piperazine-1-carboxylate], under setting [2], the pIC50 is 7.82. On to `CC(=O)c1cc2c(cc1NC(=O)CN1CCN(C(=O)NC(C)C)CC1)OCO2` [compound 4, 4-(2-((6-Acetylbenzo[d][1,3]dioxol-5-yl)amino)-2-oxoethyl)-N-isopropylpiperazine-1-carboxamide], for which the pIC50 under setting [2] was 7.47. `CC(=O)c1cc2c(cc1NC(=O)CN1CCN(S(=O)(=O)C(C)C)CC1)OCO2` [compound 5, N-(6-acetylbenzo[d][1,3]dioxol-5-yl)-2-(4-(isopropylsulfonyl)piperazin-1-yl)acetamide]: the negative-log IC50 (pIC50) under setting [2] is 6.89. In the case of `COc1cc2c(cc1NC(=O)CN1CCN(C(=O)CC(C)C)CC1)OCO2` [compound 6, N-(6-Methoxybenzo[d][1,3]dioxol-5-yl)-2-(4-(3-methylbutanoyl)piperazin-1-yl)acetamide], the negative-log IC50 (pIC50) under setting [2] is 6.31. As to `CC(=O)c1cc2c(cc1NC(=O)CN1CCN(C(C)=O)CC1)OCO2` [compound 7], the pIC50 under setting [2] is 7.05. Still for that read-out and setting: the result for `CCC(=O)N1CCN(CC(=O)Nc2cc3c(cc2C(C)=O)OCO3)CC1` [compound 8] reads 7.30; that for `CCCC(=O)N1CCN(CC(=O)Nc2cc3c(cc2C(C)=O)OCO3)CC1` [compound 9], 7.54; that for `CCCCC(=O)N1CCN(CC(=O)Nc2cc3c(cc2C(C)=O)OCO3)CC1` [compound 10], 8.05.

`CC(=O)c1cc2c(cc1NC(=O)CN1CCN(C(=O)C(C)C)CC1)OCO2` [compound 11]: under setting [2], the negative-log IC50 (pIC50) is 7.40.

For the compound `CC(=O)c1cc2c(cc1NC(=O)CN1CCN(C(=O)C3CC3)CC1)OCO2` [compound 12], the pIC50 under setting [2] is 7.40. On the same count and under the same terms, the result for `CC(=O)c1cc2c(cc1NC(=O)CN1CCN(C(=O)C(C)(C)C)CC1)OCO2` [compound 13] reads 7.64; that for `CC(=O)c1cc2c(cc1NC(=O)CN1CCN(C(=O)CC(C)(C)C)CC1)OCO2` [compound 14], 7.10; that for `CC(=O)c1cc2c(cc1NC(=O)CN1CCN(C(=O)CC3CC3)CC1)OCO2` [compound 15], 7.62. With `CC(=O)c1cc2c(cc1NC(=O)CN1CCN(C(=O)C3CCCC3)CC1)OCO2` [compound 16], the pIC50 under setting [2] was 7.54. The same measure, in the same setting: the result for `CC(=O)c1cc2c(cc1NC(=O)CN1CCN(C(=O)C3CCCCC3)CC1)OCO2` [compound 17] reads 6.82; that for `CC(=O)c1cc2c(cc1NC(=O)CN1CCN(C(=O)CO)CC1)OCO2` [compound 18], 6.67. Consider `COCC(=O)N1CCN(CC(=O)Nc2cc3c(cc2C(C)=O)OCO3)CC1` [compound 19], for which, under setting [2], the pIC50 was 7.22. The same measure, in the same setting: the result for `CC(=O)c1cc2c(cc1NC(=O)CN1CCN(C(=O)COC(C)C)CC1)OCO2` [compound 20] reads 6.77; that for `COCCOCC(=O)N1CCN(CC(=O)Nc2cc3c(cc2C(C)=O)OCO3)CC1` [compound 21], 6.75; that for `CC(=O)c1cc2c(cc1NC(=O)CN1CCN(C(=O)C3CCCCO3)CC1)OCO2` (stereo not shown) [compound 23], 7.74. Take `CC(=O)c1cc2c(cc1NC(=O)CN1CCN(C(=O)C3CCOCC3)CC1)OCO2` [compound 24]: under setting [2], the pIC50 is 6.47. With `CC(=O)c1cc2c(cc1NC(=O)CN1CCN(C(=O)C3CCN(C)CC3)CC1)OCO2` [compound 25], the pIC50 under setting [2] was 5.36. For `CC(=O)c1cc2c(cc1NC(=O)CN1CCN(C(=O)CN3CCCC3)CC1)OCO2` [compound 27], under setting [2], the pIC50 was 6.75. Still for that read-out and setting: the figure for `CC(=O)c1cc2c(cc1NC(=O)CN1CCN(C(=O)CN3CCOCC3)CC1)OCO2` [compound 28] is 6.97. For `CCOC(=O)N1CCN(CC(=O)Nc2cc3c(cc2C(C)=O)OCO3)CC1` [compound 29], the pIC50 under setting [2] was 6.51. With `CC(=O)c1cc2c(cc1NC(=O)CN1CCN(C(=O)OC(C)C)CC1)OCO2` [compound 30], under setting [2], the negative logarithm of the IC50 (pIC50) is 7.40.

With `CC(=O)c1cc2c(cc1NC(=O)CN1CCN(C(=O)Oc3ccccc3)CC1)OCO2` [compound 31], the pIC50 under setting [2] was 6.58. As for `CC(=O)c1cc2c(cc1NC(=O)CN1CCN(C(=O)NCc3ccccc3)CC1)OCO2` [compound 32], under setting [2], the pIC50 was 7.68. Same read-out and setting: the figure for `CC(=O)c1cc2c(cc1NC(=O)CN1CCN(C(=O)Nc3ccccc3)CC1)OCO2` [compound 33] is 7.30. `CC(=O)c1cc2c(cc1NC(=O)CN1CCN(C(=O)c3ccccc3)CC1)OCO2` [compound 34]: the pIC50 under setting [2] is 7.70.

In the case of `CC(=O)c1cc2c(cc1NC(=O)CN1CCN(C(=O)c3cccs3)CC1)OCO2` [compound 35], under setting [2], the pIC50 is 7.40. For `CC(=O)c1cc2c(cc1NC(=O)CN1CCN(C(=O)c3ccco3)CC1)OCO2` [compound 36], the pIC50 under setting [2] is 8.40.

`CC(=O)c1cc2c(cc1NC(=O)CN1CCN(C(=O)c3ccsc3)CC1)OCO2` [compound 37]: the pIC50 under setting [2] was 7.64. For `CC(=O)c1cc2c(cc1NC(=O)CN1CCN(C(=O)c3cccc(O)c3)CC1)OCO2` [compound 38], the pIC50 under setting [2] is 7.30.

With `CC(=O)c1cc2c(cc1NC(=O)CN1CCN(C(=O)c3ccncc3)CC1)OCO2` [compound 39], the pIC50 under setting [2] was 7.15.

`CC(=O)c1cc2c(cc1NC(=O)CN1CCN(C(=O)c3ccccc3O)CC1)OCO2` [compound 40]: under setting [2], the pIC50 is 7.10. `COc1ccccc1C(=O)N1CCN(CC(=O)Nc2cc3c(cc2C(C)=O)OCO3)CC1` [compound 41]: the pIC50 under setting [2] is 7.40.

On to `CC(=O)c1cc2c(cc1NC(=O)CN1CCN(C(=O)c3cccnc3)CC1)OCO2` [compound 42], for which, under setting [2], the pIC50 was 7.22. The same measure, in the same setting: the result for `CC(=O)c1cc2c(cc1NC(=O)CN1CCN(C(=O)c3ccc(O)cc3)CC1)OCO2` [compound 43] reads 7.10; that for `CC(=O)c1cc2c(cc1NC(=O)CN1CCN(C(=O)c3ccccc3F)CC1)OCO2` [compound 44], 7.30. With `CC(=O)c1cc2c(cc1NC(=O)CN1CCN(C(=O)c3ccc(F)cc3)CC1)OCO2` [compound 45], under setting [2], the pIC50 is 7.55. Regarding `CC(=O)c1cc2c(cc1NC(=O)CN1CCN(C(=O)c3cccc(F)c3)CC1)OCO2` [compound 46], the pIC50 under setting [2] is 7.59. On to `COc1ccc(C(=O)N2CCN(CC(=O)Nc3cc4c(cc3C(C)=O)OCO4)CC2)cc1` [compound 47], for which the pIC50 under setting [2] is 7.68. With `COc1cccc(C(=O)N2CCN(CC(=O)Nc3cc4c(cc3C(C)=O)OCO4)CC2)c1` [compound 48], under setting [2], the pIC50 is 7.89. On the same count and under the same terms, the result for `CC(=O)c1cc2c(cc1NC(=O)CN1CCN(C(=O)c3ccccn3)CC1)OCO2` [compound 49] reads 7.00. Turning to `CC(=O)c1cc2c(cc1NC(=O)CN1CCN(C(=O)c3cccc(CO)c3)CC1)OCO2` [compound 50], the pIC50 under setting [2] is 6.40.

As to `COCc1cccc(C(=O)N2CCN(CC(=O)Nc3cc4c(cc3C(C)=O)OCO4)CC2)c1` [compound 51], the pIC50 under setting [2] is 6.63. As to `CC(=O)c1cc2c(cc1NC(=O)CN1CCN(C(=O)Cc3ccccc3)CC1)OCO2` [compound 52], under setting [2], the pIC50 was 7.29. As for `CC(=O)c1cc2c(cc1NC(=O)CN1CCN(C(=O)Cc3ccccc3O)CC1)OCO2` [compound 53], under setting [2], the pIC50 was 7.74. Still for that read-out and setting: the result for `COc1ccccc1CC(=O)N1CCN(CC(=O)Nc2cc3c(cc2C(C)=O)OCO3)CC1` [compound 54] reads 7.62; that for `CC(=O)c1cc2c(cc1NC(=O)CN1CCN(C(=O)Cc3ccccc3F)CC1)OCO2` [compound 55], 7.15. As to `CC(=O)c1cc2c(cc1NC(=O)CN1CCN(C(=O)Cc3cccnc3)CC1)OCO2` [compound 56], under setting [2], the pIC50 was 7.10. Take `CC(=O)c1cc2c(cc1NC(=O)CN1CCN(C(=O)Cc3cccc(O)c3)CC1)OCO2` [compound 57]: under setting [2], the pIC50 is 7.00.

`COc1cccc(CC(=O)N2CCN(CC(=O)Nc3cc4c(cc3C(C)=O)OCO4)CC2)c1` [compound 58]: the pIC50 under setting [2] was 7.22.
